Reference: patent US20070258921A1, “PROCESS FOR DEPIGMENTING THE SKIN” (L'OREAL, priority 2006, published 2007)

How the values were obtained:
[1] = system: cocultures of keratinocytes and of melanocytes; assay: Inhibition of melanin synthesis (ratio of thiouracil to leucine incorporation) in keratinocyte/melanocyte cocultures; assay type: cell-based
Method: (§1) The modulating effect with regard to melanogenesis of the compounds tested was measured according to the method described in Patent FR-A-2 734 825 and in the paper by R. Schmidt, P. Krien and M. Régnier, Anal. Biochem., 235(2), 113-18, 1996. This test is carried out on cocultures of keratinocytes and of melanocytes.
(§2) For the compound tested, the following were determined:
the inhibitory activity with regard to the synthesis of melanin, by estimating the ratio of the incorporation of thiouracil to the incorporation of leucine, with respect to 100% of the control (the control corresponds to the test carried out without compound to be tested). The IC50 (concentration at which the synthesis of melanin is inhibited by 50%) values were determined.

[2] = system: cocultures of keratinocytes and of melanocytes; assay: Cytotoxicity by estimating the incorporation of leucine in keratinocyte/melanocyte cocultures; assay type: cell-based
Method: as §1, §2
the cytotoxicity, by estimating the incorporation of leucine, […]

Q: `CC(=O)OC[C@H]1O[C@@H](n2cnc3c(N)ncnc32)[C@@H]2OC(C)(C)O[C@@H]21` [Compound H, 2′,3′-isopropylidene-5′-acetyladenosine] was tested. Which IC50 ([1]; ratio of thiouracil to leucine incorporation, with respect to 100% of the control, read-out: IC50 (concentration at which the synthesis of melanin is inhibited by 50%)) did it give?
A: The IC50 was 35 µM.

Q: What about the Cytotoxicity [2] of the same molecule?
A: The Cytotoxicity was “No”.

Q: With `Nc1ncnc2c1ncn2[C@@H]1O[C@H](CO)[C@@H](O)[C@H]1O` [adenosine, reference compound] as the molecule, how does the inhibition at 100 µM ([1]; at the concentration of 100 μM, read-out: melanin synthesis inhibited) read?
A: Its inhibition at 100 µM is 20%.
